Laboratory results: patent US20150284362A1, “CARBAZOLE-CONTAINING AMIDES, CARBAMATES, AND UREAS AS CRYPTOCHROME MODULATORS” (ReSet Therapeutics, Inc., priority 2014, published 2015)

Legend:
[1] = biological target: T1, FAD-binding domain of human CRY1 protein (hCRY1) (Homo sapiens, UniProt Q16526); assay: Thermal shift binding assay (differential scanning fluorimetry); settings: purified FADBD 0.5 μg per well, 5% DMSO
T1 construct: Myc-DDK (Myc + FLAG) (C); made in house
T1 sequence (Q16526 1-494): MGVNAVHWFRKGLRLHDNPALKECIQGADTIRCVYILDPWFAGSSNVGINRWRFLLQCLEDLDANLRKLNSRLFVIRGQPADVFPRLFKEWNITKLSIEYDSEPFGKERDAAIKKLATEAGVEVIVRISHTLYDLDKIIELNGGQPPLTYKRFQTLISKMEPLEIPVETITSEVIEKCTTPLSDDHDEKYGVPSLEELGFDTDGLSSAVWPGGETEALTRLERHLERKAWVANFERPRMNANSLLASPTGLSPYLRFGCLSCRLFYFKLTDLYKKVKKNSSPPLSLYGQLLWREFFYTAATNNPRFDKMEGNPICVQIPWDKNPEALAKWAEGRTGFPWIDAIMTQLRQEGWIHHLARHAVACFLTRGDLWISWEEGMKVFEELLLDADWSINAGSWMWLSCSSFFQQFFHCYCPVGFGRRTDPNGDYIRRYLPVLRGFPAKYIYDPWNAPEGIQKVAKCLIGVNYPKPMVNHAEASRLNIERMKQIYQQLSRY
Method: Binding of compounds to the isolated FAD-binding domain of human CRY1 protein (hCRY1) was determined using a differential scanning fluorimetry (‘thermal shift’) assay (Pantoliano et al. (2001) J Biomol Screening 6, 429; Niesen et al. (2007) Nature Protocols 2, 2212). The FAD-binding domain of hCRY1 (amino acid residues 1-494) with a C-terminal Myc-DDK tag (FADBD), was produced by transient transfection of HEK293T cells (Catalog # CRL-3216, American Type Culture Collection) and purified by anti-FLAG affinity chromatography (Catalog # A2220, Sigma-Aldrich). FADBD (0.5 μg per well) was incubated with dilutions of compounds in DMSO (5% DMSO final concentration in reaction) in 17.5 μl Tris-buffered saline (TBS) for 10 minutes on ice, then 2.5 μl of 8× Sypro-Orange Dye (Life Technologies) was added to each well. Triplicate wells were assayed for each compound concentration. The melting temperatures were measured in an ABI7500 quantitative PCR instrument using the melt curve mode with a thermal profile of 2 minutes at 25° C., followed by a ramp rate of 1° C./minute up to 99° C. The melting temperature for each well was determined from the first derivative of the melt curve. The change in melting temperature (ΔTm) was obtained by subtraction of the melting temperature of the FADBD in 5% DMSO alone.

[2] = system: core clock and gluconeogenic gene mRNAs in liver; assay: 24 hour gene expression study, liver mRNA by RT-qPCR, C57Bl/6J DIO mice; type: in vivo, mouse; settings: 50 mg/kg PO BID, 5 doses
From the text: Male C57Bl/6J DIO mice were purchased at 17 weeks of age (The Jackson Laboratory, Sacramento, Calif.) and acclimated for a 2 week period before being used for the experiment. Overall group size was 15 per treatment, divided into 5 time-points to give a final group size of 3 mice.
In total, each mouse received 5 doses of compound over the course of the experiment. Mice were weighed and randomly assigned to each treatment based on weight the evening before the commencement of the study. Beginning on Day 3 at 3:00 PM, a group of animals from the vehicle and Compound 72-treated groups were euthanized using CO2 asphyxiation, 50 mg of liver, epididymal fat, and skeletal muscle, respectively, were excised and placed in tube containing 500 μl of RNALater. This procedure took place for the remainder of the time-point groups at their given harvest times. Plasma samples were also taken for each animal and frozen, to be used for later measurement of compound levels.
E.Z.N.A.® HP Total RNA Isolation Kits (R6812-01 and the protocol described in the Manual, Revised 2010) were utilized to prepare and isolate RNA from the liver samples. To prepare the RNA samples, 10-30 mg of sample was removed from RNA-Later and placed in a 1.5 ml microfuge tube. GTC lysis buffer (700 μl) was added to the tissue, which was homogenized with a rotor-stator homogenizer (e.g. Tissue-Tearor, Model #985370 BioSpec Products with 4.5 mm probe, Cat. #985370-04), and then centrifuged at full speed (≧13,000×g) for 5 minutes. The cleared supernatant was transferred by pipetting to a DNA Clearance Column Pre-inserted in a 2 mL Collection Tube. The assembled column was centrifuged at 13,000×g for 1 minute, and the flow-through was saved. An equal volume (700 μl) of 70% ethanol was added to the lysate and mixed. The sample was then applied to a HiBind RNA spin column placed into a 2 ml collection tube, which was centrifuged at 10,000×g for 60 seconds at room temperature. RNA Wash Buffer I (250 μl) was added by pipetting directly onto a new HiBind RNA column inserted in a 2 ml collection tube. The assembled column was centrifuged at 10,000×g for 60 seconds. The RNA column was placed into a new 2 ml collection tube. DNase I stock solution is pipetted (75 μl) directly onto the surface of the HiBind RNA resin in each column (Using DNAse Digestion with RNase Free DNase Set (E1091): for each HiBind RNA column, the DNase I stock solution was prepared as followed: E.Z.N.A.® DNase I Digestion Buffer 73.5 μl, RNase Free DNase I (20 Kunitz/μl) 1.5 μl=Total Volume 75 μl.). The column with bound RNA was incubated at room temperature (25-30° C.) for 15 minutes. RNA Wash Buffer I (500 μl) was added to the column and placed on a bench top for 2 minutes. After centrifuging at 10,000×g for 60 seconds, discarding the flow-through, 500 μl of RNA Wash Buffer II was added and centrifuged at 10,000×g for 60 seconds. Another 500 μl of RNA Wash Buffer II was added and the column assembly was centrifuged at 10,000×g for 60 seconds. The column was centrifuged for 2 minutes at maximum speed to completely dry the HiBind matrix. The column was placed in a clean 1.5 ml microcentrifuge tube and 40-70 μl of molecular biology grade water is added. […]
RediPlate 96 RiboGreen RNA Quantification Kit (Invitrogen) RediPlate standard curve was prepared by transferring 20 μl reconstituted RNA standard to a RediPlate well reconstituted in 180 μl RediPlate TE buffer. […]

O=C1NCCN1CC(O)Cn1c2ccc(F)cc2c2cc(F)ccc21 (stereo not drawn) [Compound 72, 1-(3-(3,6-difluoro-9H-carbazol-9-yl)-2-hydroxypropyl)imidazolidin-2-one]
change in melting temperature (ΔTm) of hCRY1 FADBD [1]: dose-dependent increase in ΔTm | Bmal1 mRNA in liver ([2]; at ZT8 and 32 hours after ZT0 vs vehicle): substantially increased | Per2 mRNA in liver ([2]; over 24 hours vs vehicle): suppressed | Cry1 mRNA in liver ([2]; vs vehicle): suppressed during its peak of expression during the dark period | Cry2 mRNA in liver (daytime peak) ([2]; vs vehicle): strongly attenuated | circadian pattern of mRNAs for gluconeogenic genes Pck1 and G6Pc in liver ([2]; vs vehicle): substantially altered
